# From patent publication US11773096B2, “Small-molecule PI5P4K alpha/beta inhibitors and methods of treatment using same” (YALE UNIVERSITY, priority 2018, dated 2023)
# Columns and labels:
# EIF2AK3 = EIF2AK3 (Homo sapiens, UniProt Q9NZJ5); test: HotSpot protein kinase panel; details: read-out: EIF2AK3 activity remaining
# TNIK = TNIK (Homo sapiens, UniProt Q9UKE5); test: HotSpot protein kinase panel; details: read-out: TNIK activity remaining
# Method: (§3) In both titrations, the ATP concentration was fixed at 50 μM. The assay kits for Plk1 and RSK2 were obtained from Promega (Madison, Wis.), which use ADP-Glo™ for activity detection.
# NEK1 = NEK1 (Homo sapiens, UniProt Q96PY6); test: HotSpot protein kinase panel; details: read-out: NEK1 activity remaining
# L6 myotubes = test: Immunoblot analysis of ACC phosphorylation in L6 myotubes; format: cell-based, rat; details: dose-dependent
# Method: (§1) BT-474 and MCF7 breast cancer cells, C2Cl2 mouse myoblast cells, and HEK 293T cells were maintained in high-glucose DMEM medium containing 10% FBS. L6 rat myoblast cells were maintained in α-MEM medium containing 10% FBS. For differentiation into myotubes, C2Cl2 cells were kept in DMEM medium containing 2% horse serum for 5 days, and L6 cells were kept in α-MEM medium containing 2% FBS for 7 days. Amino-acid-free DMEM medium was prepared using powder from USBio, and MEM amino acids solution was from Gibco. Media were all supplemented with 100 U/ml penicillin/streptomycin. Cell lines were purchased from ATCC.
# (§2) After wash with cold DPBS buffer, cells were lysed in RIPA buffer that contained 50 mM Tris-HCl pH 8.0, 150 mM NaCl, 1 mM EDTA, 1 mM EGTA, 1% NP-40, 0.5% sodium deoxycholate, 0.1% SDS, and protease and phosphatase inhibitor cocktails (Roche). Total protein concentrations were measured using a BCA assay (Thermo scientific). Cell lysate (about 80 μg protein) was resolved by SDS-PAGE and blotted onto PVDF membranes. The membranes were probed overnight at 4° C. with appropriate primary antibodies (Cell Signaling Technology) and incubated with secondary fluorescent antibodies (LI-COR Biosciences) for 1 hr at room temperature before imaging by an Odyssey CLx system.
# TYRO3 = TYRO3 (Homo sapiens, UniProt Q06418); test: HotSpot protein kinase panel; details: read-out: TYRO3 activity remaining
# Vps34 = Vps34 (Homo sapiens, UniProt Q8NEB9); test: In vitro lipid kinase profiling
# PI4P5Kγ = PI4P5Kγ (Homo sapiens, UniProt O60331); test: Lipid kinase panel (ADP-Glo); details: read-out: PI4P5Kγ activity remaining
# PI3Kγ = PI3Kγ (Homo sapiens, UniProt P48736); test: Lipid kinase panel (ADP-Glo)
# Method: (§4) In both titrations, the ATP concentration was fixed at 50 μM.
# NEK11 = NEK11 (Homo sapiens, UniProt Q8NG66); test: HotSpot protein kinase panel; details: read-out: NEK11 activity remaining
# BT-474 cells = test: Intracellular ROS (DCFDA); format: cell-based; details: 20 μM
# Method: 2′,7′-dichlorofluorescin diacetate (DCFDA) was used to assess intracellular ROS levels. DCFDA is deacetylated in the cell and oxidized by ROS to a fluorescent product 2′,7′-dichlorofluorescein (DCF). BT-474 cells were plated on a black clear-bottom 96-well plate (Corning 3603; 2×10^4 cells per well). ROS was measured by a DCFDA cellular ROS detection assay kit (Abcam) following the manufacturer's protocol. The cells were treated with compound for 6 hrs before fluorescence was measured using a SpectraMax M5 plate reader (excitation 485 nm, emission 535 nm).
# AMPK = test: Western blot of ACC phosphorylation by AMPK in myotubes (FIG. 3F); format: cell-based
# Method: as §2
# c-MER = c-MER (Homo sapiens, UniProt Q12866); test: HotSpot protein kinase panel; details: read-out: c-MER activity remaining
# Plk1 = Plk1 (Homo sapiens, UniProt P53350); test: HotSpot protein kinase panel; details: read-out: Plk1 activity remaining
# Method: as §3
# BT474 cells [1] = test: Cell cycle analysis by flow cytometry; format: cell-based
# Method: To monitor cell cycle progression, cells were harvested by trypsinization, washed with DPBS, and fixed with cold 70% ethanol for 30 min at 4° C. Before analysis, 2×10^6 cells were washed with DPBS three times and treated with 100 μl 100 μg/ml ribonuclease (DNase-free; Sigma Aldrich) for 10 min at room temperature. Samples were then stained for total DNA using 400 μl DPBS containing 50 μg/ml propidium iodide (Invitrogen). Cell cycle distribution was analyzed by a BD LSR II flow cytometer.
# BT474 cells [2] = test: Proliferation (CellTiter-Glo); format: cell-based
# Method: To measure cell number using the CellTiter-Glo 2.0 assay kit (Promega), cultured cells were equilibrated to room temperature for 30 min, and an equal volume of the CellTiter-Glo reagent was added and mixed for 2 min on an orbital shaker. The plates were incubated for another 10 min before luminescence was recorded using a SpectraMax M5 plate reader. To assess the effect of compound on growth, cells were plated onto white solid-bottom 96-well plates (coming 3917) at 2,000 cells per well in sextuplicate. After 24 hrs, compound (or DMSO control) was added to the wells, and cell number was determined after culturing for 0, 24, 48, and 72 hrs.
# MCF10A p53(−/−) cells = test: Cell death upon serum withdrawal, trypan blue staining; format: cell-based
# Method: However, the difference is lost when EGF is added to the culture media. […] FIG. 17C: Cell death upon serum withdrawal is measured by trypan blue staining. p53(−/−) Cells are more susceptible to metabolic perturbations caused by glucose starvation.
# RSK2 [3] = biological target: T1, RSK2 (Homo sapiens, UniProt P51812); test: RSK2 kinase assay kit (Promega, ADP-Glo)
# Description: The assay kits for Plk1 and RSK2 were obtained from Promega (Madison, Wis.), which use ADP-Glo™ for activity detection.
# PI3Kδ = PI3Kδ (Homo sapiens, UniProt O00329); test: Lipid kinase panel (ADP-Glo)
# Method: as §4
# [4] = tested on: panel of 14 lipid kinases; test: Lipid kinase panel (ADP-Glo), panel as a whole; details: compound 0.5 μM, ATP 10 μM
# Method: as §4
# C2Cl2 myotubes = test: Immunoblot analysis of signaling in C2Cl2 myotubes; format: cell-based, mouse
# Method: as §1, §2
# RSK2 [5] = biological target: T1, RSK2; test: HotSpot protein kinase panel; details: read-out: RSK2 activity remaining
# Method: as §3
# T1 sequence (P51812 whole entry): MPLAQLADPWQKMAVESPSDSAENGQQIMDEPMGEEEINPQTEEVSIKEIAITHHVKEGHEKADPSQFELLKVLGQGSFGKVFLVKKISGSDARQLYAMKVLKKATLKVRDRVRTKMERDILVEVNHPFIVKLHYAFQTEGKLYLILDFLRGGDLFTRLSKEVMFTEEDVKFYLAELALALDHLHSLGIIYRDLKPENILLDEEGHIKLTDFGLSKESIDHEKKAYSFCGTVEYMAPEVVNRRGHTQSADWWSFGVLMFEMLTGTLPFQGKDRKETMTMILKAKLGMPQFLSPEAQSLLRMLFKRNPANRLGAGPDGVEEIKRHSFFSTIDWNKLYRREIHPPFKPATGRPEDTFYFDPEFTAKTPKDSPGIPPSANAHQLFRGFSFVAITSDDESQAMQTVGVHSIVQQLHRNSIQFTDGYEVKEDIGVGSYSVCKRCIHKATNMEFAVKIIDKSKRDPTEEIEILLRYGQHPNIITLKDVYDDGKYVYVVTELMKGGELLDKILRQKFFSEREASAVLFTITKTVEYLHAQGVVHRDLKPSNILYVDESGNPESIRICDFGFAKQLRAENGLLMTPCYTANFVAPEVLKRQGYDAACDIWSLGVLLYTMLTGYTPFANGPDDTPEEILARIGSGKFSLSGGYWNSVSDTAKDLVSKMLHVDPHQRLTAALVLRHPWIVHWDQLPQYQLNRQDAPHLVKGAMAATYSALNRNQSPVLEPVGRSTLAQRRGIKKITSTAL
# PI3Kγ, sequence (P48736 whole entry, species assumed): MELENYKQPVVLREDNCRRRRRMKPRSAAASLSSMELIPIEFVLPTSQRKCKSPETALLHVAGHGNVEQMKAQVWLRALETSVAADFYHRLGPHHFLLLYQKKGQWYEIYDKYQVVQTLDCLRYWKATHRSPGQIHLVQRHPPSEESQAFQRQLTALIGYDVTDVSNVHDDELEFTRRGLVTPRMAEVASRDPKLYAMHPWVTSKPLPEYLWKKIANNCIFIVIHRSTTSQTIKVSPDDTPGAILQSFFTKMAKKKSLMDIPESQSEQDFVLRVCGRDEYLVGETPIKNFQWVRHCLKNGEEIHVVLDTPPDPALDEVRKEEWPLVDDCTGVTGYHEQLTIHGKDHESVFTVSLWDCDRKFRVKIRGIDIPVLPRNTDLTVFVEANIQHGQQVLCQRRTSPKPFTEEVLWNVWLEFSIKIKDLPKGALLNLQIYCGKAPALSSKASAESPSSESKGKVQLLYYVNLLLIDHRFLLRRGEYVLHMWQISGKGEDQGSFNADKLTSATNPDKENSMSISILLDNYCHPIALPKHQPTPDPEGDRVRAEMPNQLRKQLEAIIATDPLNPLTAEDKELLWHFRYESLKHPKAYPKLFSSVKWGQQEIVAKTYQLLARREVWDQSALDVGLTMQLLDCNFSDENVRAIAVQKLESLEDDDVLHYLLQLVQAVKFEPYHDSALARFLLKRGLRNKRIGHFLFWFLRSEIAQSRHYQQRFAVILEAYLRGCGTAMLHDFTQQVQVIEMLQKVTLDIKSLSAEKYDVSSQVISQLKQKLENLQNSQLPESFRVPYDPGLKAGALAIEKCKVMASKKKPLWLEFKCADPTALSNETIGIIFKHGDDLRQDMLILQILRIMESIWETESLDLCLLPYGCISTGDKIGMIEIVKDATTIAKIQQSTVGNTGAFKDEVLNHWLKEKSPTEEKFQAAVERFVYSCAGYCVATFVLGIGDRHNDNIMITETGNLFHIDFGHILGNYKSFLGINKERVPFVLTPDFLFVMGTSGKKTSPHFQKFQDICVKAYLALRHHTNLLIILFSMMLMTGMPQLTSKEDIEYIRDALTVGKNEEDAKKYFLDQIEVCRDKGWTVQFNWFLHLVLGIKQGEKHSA
# NEK11, sequence (Q8NG66 whole entry): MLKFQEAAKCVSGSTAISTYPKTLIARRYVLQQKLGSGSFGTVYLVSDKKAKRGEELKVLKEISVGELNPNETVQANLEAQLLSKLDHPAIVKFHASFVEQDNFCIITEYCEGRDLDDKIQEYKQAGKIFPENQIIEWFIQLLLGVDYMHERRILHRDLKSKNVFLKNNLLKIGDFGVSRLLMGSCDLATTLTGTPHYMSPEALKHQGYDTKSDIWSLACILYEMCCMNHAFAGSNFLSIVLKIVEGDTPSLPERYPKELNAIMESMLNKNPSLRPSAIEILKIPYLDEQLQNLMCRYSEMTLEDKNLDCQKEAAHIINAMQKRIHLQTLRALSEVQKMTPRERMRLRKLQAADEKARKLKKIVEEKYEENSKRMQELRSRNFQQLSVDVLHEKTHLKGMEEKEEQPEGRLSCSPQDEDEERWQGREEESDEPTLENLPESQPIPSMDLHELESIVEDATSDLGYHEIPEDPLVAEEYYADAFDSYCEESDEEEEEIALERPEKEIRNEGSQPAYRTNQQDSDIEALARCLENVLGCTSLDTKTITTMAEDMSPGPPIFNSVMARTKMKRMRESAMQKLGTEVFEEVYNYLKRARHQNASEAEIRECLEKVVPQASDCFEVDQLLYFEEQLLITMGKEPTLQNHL
# c-MER, sequence (Q12866 21-999): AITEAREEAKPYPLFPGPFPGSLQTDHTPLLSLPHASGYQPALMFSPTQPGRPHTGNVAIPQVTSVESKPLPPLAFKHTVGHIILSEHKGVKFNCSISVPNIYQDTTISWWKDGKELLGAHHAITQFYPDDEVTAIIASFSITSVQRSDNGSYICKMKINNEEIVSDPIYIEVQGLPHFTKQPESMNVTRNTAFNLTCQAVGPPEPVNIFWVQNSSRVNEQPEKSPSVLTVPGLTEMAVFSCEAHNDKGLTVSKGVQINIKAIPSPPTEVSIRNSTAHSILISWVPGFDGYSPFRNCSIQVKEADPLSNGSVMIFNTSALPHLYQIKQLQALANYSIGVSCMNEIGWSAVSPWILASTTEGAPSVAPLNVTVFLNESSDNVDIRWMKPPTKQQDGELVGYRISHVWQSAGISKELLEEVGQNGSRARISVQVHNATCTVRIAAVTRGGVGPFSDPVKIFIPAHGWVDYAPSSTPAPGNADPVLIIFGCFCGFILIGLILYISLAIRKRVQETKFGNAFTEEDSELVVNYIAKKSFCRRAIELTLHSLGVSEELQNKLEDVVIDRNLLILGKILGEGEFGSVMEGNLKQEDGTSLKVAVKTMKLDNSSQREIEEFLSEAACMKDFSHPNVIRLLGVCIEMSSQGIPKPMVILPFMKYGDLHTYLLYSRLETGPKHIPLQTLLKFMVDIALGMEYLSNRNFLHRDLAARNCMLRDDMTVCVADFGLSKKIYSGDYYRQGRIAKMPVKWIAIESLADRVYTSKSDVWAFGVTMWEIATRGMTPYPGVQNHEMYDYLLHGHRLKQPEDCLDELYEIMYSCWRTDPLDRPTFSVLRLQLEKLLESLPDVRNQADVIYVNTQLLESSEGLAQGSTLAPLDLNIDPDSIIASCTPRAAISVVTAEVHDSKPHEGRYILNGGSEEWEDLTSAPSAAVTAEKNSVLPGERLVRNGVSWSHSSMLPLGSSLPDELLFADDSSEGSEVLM
# PI4P5Kγ, sequence (O60331 whole entry): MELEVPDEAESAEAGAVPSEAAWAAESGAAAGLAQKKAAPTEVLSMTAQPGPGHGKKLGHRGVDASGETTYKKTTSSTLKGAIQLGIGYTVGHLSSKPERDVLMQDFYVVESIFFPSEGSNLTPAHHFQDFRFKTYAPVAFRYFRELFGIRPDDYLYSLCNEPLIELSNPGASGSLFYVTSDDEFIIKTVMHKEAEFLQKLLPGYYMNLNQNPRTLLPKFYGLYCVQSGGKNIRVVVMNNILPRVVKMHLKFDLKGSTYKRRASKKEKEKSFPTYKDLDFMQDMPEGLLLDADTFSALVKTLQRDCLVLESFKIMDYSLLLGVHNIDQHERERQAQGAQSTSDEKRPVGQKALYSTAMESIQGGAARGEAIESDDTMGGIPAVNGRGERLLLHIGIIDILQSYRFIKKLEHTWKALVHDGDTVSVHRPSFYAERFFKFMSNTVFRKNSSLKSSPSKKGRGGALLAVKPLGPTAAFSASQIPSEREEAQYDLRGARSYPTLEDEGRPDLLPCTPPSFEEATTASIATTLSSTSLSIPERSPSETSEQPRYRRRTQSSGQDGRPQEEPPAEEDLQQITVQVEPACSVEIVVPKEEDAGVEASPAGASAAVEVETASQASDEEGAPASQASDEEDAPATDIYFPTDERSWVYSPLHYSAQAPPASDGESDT
# Vps34, sequence (Q8NEB9 whole entry, species assumed): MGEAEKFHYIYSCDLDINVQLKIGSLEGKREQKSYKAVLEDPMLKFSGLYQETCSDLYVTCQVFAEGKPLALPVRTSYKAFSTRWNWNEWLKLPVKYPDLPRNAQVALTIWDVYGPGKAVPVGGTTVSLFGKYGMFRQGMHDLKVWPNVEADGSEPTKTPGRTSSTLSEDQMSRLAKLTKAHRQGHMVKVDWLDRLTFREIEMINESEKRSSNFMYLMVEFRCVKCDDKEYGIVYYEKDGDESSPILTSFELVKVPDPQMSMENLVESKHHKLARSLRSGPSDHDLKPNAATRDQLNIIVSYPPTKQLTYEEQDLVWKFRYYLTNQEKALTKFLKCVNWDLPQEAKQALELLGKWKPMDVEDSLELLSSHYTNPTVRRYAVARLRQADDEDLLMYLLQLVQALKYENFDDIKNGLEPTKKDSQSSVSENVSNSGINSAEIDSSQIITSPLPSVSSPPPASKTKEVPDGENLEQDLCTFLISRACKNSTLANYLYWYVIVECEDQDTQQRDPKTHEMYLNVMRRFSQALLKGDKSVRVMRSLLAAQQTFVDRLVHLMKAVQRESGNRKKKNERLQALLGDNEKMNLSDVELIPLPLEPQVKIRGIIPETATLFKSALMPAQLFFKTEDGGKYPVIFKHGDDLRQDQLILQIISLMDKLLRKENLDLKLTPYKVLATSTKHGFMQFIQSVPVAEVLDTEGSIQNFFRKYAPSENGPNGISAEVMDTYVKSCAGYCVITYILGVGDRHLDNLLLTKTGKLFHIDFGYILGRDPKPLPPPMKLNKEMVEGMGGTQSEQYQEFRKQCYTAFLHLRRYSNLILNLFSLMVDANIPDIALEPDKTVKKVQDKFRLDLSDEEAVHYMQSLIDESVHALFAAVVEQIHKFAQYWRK
compound,measurement,setting,value
"CN1C(=O)[C@@H](CC2CCCC2)N(C2CCCC2)c2nc(Nc3cc(Cl)c(O)c(Cl)c3)ncc21 [7a, (R)-8-cyclopentyl-7-(cyclopentylmethyl)-2-((3,5-dichloro-4-hydroxyphenyl)amino)-5-methyl-7,8-dihydropteridin-6(5H)-one]",remaining activity at 0.5 µM,EIF2AK3,50%
same,remaining activity at 0.5 µM,TNIK,73%
same,remaining activity at 0.5 µM,NEK1,67%
same,phosphorylation of acetyl-CoA carboxylase (ACC),L6 myotubes,significantly increased
same,remaining activity at 0.5 µM,TYRO3,72%
same,inhibition of Vps34,Vps34,not inhibited
same,remaining activity at 0.5 µM,PI4P5Kγ,98%
same,Ki,PI3Kγ,~200 nM
same,remaining activity at 0.5 µM,NEK11,66%
same,ROS,BT-474 cells,increased
same,ACC phosphorylation / AMPK activation,AMPK,activated
same,remaining activity at 0.5 µM,c-MER,67%
same,remaining activity at 0.5 µM,Plk1,97%
same,cell cycle distribution,BT474 cells [1],accumulation of cells in the G0/G1 phase
same,sensitivity of BT474 growth to inhibition at 32° C.,BT474 cells [2]; 32° C. (restores p53 function),less sensitive
same,growth of BT474 cells,"BT474 cells [2]; dose-dependent, 37° C.",inhibited
same,cell death,MCF10A p53(−/−) cells,selectively kills p53(−/−) cells
same,Ki,RSK2 [3],~1000 nM
same,"calculated RSK2 activity, % of DMSO control",RSK2 [3]; calculated for 0.5 μM 7a and 20 μM ATP,79%
same,Ki,PI3Kδ,~120 nM
same,inhibition of other lipid kinases of the panel,[4],"did not inhibit most PI3Ks, PI4Ks or sphingosine kinases"
same,basal and insulin-induced phosphorylation of S6K at Thr-389,C2Cl2 myotubes,reduced
same,phosphorylation of acetyl-CoA carboxylase (ACC),"C2Cl2 myotubes; C2Cl2 myotubes, dose-dependent",significantly increased
same,IRS phosphorylation at Ser-302,C2Cl2 myotubes; FIG. 3D,reduced
same,Akt phosphorylation,"C2Cl2 myotubes; FIG. 3D, comparison 7a vs rapamycin",more pronounced effect
same,"hormone-induced Akt phosphorylation, especially at Ser-473",C2Cl2 myotubes; overnight incubation with 20 μM,increased
same,remaining activity at 0.5 µM,RSK2 [5],83%
